Drawing on patent EP1044000B1, “COMBINATION THERAPY FOR THE TREATMENT OF AIDS” (MERCK & CO., INC., priority 1997, dated 1999), this text covers CIC95 for 1 compound.

The subject of this assay is wild-type HIV-1. The assay can be described thus: Cell Spread Assay (described in US 5,646,148). It is filed as cell-based. To be noted: against wild-type HIV-1.

Turning to `CC(C)(C)NC(=O)[C@@H]1CN(Cc2cccnc2)CCN1C[C@@H](O)C[C@@H](Cc1ccccc1)C(=O)N[C@H]1c2ccccc2C[C@H]1O` [Indinavir, N-(2(R)-hydroxy-1(S)-indanyl)-2(R)-phenylmethyl-4-(S)-hydroxy-5-(1-(4-(3-pyridylmethyl)-2(S)-N'-(t-butylcarboxamido)-piperazinyl))-pentaneamide], the CIC95 is 50 nM.
